Laboratory results taken from ChEMBL document CHEMBL5678818, “Discovery of potent SOS1 inhibitors that block RAS activation via disruption of the RAS-SOS1 interaction” (Proc Natl Acad Sci U S A, 2019).

Key:
[1] = target: T1, Aurora kinase A (Homo sapiens) (UniProt O14965); experiment: Inhibition of AURKA (unknown origin) assessed as residual activity at 1000 nM by KINOMEscan analysis relative to control
T1 sequence (whole entry): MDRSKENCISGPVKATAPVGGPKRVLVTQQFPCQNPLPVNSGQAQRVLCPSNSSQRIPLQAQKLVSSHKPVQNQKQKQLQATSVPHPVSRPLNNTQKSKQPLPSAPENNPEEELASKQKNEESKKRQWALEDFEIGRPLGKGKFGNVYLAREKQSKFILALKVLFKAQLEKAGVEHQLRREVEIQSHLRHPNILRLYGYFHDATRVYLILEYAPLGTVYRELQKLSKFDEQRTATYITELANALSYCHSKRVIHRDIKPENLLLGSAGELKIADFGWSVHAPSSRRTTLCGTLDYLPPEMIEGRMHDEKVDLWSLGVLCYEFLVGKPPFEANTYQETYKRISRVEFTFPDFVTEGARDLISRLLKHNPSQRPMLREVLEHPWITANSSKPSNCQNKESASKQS

[2] = target: T2, Serine/threonine-protein kinase PLK4 (Homo sapiens) (UniProt O00444); experiment: Inhibition of PLK4 (unknown origin) assessed as residual activity at 1000 nM by KINOMEscan analysis relative to control
T2 sequence (whole entry): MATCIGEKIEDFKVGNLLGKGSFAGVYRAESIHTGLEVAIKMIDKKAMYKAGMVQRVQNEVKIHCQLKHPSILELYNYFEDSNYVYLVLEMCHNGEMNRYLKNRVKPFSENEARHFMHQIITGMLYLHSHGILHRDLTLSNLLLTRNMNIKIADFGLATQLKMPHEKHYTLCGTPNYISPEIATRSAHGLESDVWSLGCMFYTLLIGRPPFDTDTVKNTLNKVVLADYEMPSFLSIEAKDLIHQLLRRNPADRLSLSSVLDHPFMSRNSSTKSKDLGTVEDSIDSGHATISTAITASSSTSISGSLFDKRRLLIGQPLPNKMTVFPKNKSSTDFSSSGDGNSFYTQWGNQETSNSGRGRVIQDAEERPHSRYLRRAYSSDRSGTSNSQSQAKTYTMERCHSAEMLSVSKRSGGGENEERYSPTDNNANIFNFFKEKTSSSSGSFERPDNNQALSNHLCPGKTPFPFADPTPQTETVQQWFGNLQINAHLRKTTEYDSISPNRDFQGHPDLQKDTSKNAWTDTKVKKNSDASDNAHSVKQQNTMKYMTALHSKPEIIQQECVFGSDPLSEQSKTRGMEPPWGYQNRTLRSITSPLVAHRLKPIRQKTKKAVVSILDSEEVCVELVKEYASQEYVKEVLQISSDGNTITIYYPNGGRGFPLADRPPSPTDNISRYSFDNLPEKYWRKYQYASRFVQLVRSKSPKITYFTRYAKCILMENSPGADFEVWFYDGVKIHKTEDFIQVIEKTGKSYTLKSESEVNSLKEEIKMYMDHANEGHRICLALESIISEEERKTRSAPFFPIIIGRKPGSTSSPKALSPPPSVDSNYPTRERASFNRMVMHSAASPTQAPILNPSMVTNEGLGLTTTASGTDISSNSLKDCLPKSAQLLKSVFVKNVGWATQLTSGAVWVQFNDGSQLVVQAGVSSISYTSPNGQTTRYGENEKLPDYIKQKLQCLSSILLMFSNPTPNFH

[3] = target: T3, Receptor-interacting serine/threonine-protein kinase 4 (Homo sapiens) (UniProt P57078); experiment: Inhibition of RIPK4 (unknown origin) assessed as residual activity at 1000 nM by KINOMEscan analysis relative to control
T3 sequence (whole entry): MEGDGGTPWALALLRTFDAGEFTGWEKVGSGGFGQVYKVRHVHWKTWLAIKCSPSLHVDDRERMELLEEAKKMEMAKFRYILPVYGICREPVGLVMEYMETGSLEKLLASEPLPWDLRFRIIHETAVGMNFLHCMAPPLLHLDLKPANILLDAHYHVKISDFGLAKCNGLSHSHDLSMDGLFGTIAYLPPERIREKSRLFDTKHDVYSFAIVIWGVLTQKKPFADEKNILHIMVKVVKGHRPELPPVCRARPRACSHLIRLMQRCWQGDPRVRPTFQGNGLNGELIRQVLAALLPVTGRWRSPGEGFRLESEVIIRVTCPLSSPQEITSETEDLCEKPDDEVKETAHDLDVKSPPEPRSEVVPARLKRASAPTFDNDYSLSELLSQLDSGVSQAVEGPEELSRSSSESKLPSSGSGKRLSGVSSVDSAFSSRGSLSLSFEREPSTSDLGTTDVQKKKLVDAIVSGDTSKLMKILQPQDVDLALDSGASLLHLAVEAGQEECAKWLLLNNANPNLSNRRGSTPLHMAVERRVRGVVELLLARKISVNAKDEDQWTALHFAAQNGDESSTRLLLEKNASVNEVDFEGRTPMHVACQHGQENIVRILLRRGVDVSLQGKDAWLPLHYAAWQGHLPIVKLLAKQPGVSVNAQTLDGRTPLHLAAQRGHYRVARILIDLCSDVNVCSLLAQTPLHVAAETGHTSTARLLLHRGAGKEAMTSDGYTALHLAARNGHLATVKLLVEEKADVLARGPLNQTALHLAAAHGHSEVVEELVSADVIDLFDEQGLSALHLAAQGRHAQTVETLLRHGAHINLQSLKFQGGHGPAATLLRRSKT

[4] = target: Ribosomal protein S6 kinase alpha-2 (Homo sapiens) (UniProt Q15349); experiment: Inhibition of N-terminal RSK3 […] domain 1 (unknown origin) assessed as residual activity at 1000 nM by KINOMEscan analysis relative to control
Sequence of Ribosomal protein S6 kinase alpha-2 (Homo sapiens) (Q15349 whole entry): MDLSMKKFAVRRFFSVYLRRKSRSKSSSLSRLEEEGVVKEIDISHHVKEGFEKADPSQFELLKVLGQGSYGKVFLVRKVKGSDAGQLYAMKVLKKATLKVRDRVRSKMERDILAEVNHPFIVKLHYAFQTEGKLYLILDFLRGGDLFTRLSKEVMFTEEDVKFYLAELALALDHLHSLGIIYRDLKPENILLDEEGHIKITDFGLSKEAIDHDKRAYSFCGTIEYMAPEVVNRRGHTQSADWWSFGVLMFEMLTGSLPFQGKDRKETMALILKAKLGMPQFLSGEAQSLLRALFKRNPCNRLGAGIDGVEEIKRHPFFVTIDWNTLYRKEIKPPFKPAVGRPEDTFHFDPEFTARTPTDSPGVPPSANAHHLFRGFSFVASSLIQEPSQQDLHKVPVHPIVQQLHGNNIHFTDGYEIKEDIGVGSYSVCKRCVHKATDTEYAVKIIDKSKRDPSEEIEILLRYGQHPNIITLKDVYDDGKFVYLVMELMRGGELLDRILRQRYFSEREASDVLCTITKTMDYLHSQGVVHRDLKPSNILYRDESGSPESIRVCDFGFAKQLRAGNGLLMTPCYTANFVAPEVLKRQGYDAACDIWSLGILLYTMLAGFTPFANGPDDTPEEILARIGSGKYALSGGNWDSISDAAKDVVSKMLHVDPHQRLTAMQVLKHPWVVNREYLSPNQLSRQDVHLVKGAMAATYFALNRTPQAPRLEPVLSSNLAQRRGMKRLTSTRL

For `COc1cc2nc(C)nc(N[C@H](C)c3cccc(-c4cn[nH]c4)c3)c2cc1OC`, the Activity [1] was 89%, the Activity [2] was 100% and the Activity [3] was 70%. The Activity [4] was 94%.
With `COc1cc2ncnc(N[C@H](C)c3cccc4ccccc34)c2cc1OC` the Activity [1] was 91%, the Activity [2] was 96% and the Activity [3] was 93%. It also gave an Activity [4] of 100%.
